Source: PubChem BioAssay AID608 (Sanford-Burnham Center for Chemical Genomics, 2007)
pKd: −log10 of the molar value. Active and inactive are the calls of the source. The rule behind the calls is not given here.

What follows are compounds tested against Peptidyl-prolyl cis-trans isomerase FKBP1A (Homo sapiens) (UniProt P62942) (assay: small-molecule binding to FKBP12 – biophysical, NMR detection (AID 608)). Settings: purified FKBP12.
Peptidyl-prolyl cis-trans isomerase FKBP1A (Homo sapiens), sequence (P62942 whole entry, looked up): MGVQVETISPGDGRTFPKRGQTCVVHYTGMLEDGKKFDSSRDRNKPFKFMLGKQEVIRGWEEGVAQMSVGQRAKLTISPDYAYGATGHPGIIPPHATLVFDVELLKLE

| Compound | Kd | pKd |
| --- | --- | --- |
| Cc1nc(-c2cccc(C(=O)O)c2)cs1 | > 4 mM (inactive) |  |
| Cn1cc(Cl)c(C(=O)Nc2ccncc2)n1 | > 4 mM (inactive) |  |
| COc1cc(C)c(S(=O)(=O)N2CCN(C)CC2)cc1C | > 4 mM (inactive) |  |
| CCOC(=O)c1ccc2c(c1)nnn2C | > 4 mM (inactive) |  |
| CCc1noc(C)c1C(=O)N1CCOCC1 | > 4 mM (inactive) |  |
| O=P(O)(Cc1ccccc1)c1ccccc1 | > 4 mM (inactive) |  |
| Cc1cc(C(=O)N2CCC3(CC2)OCCO3)cs1 | > 4 mM (inactive) |  |
| NC1CCN(Cc2ccccc2)CC1 | > 4 mM (inactive) |  |
| Cc1nnc(SCc2cccs2)[nH]c1=O | > 4 mM (inactive) |  |
| c1ccn(Cc2ccncc2)c1 | > 4 mM (inactive) |  |
| CC(=O)NC(c1ccccc1)c1cccnc1 (stereo unspecified) | > 4 mM (inactive) |  |
| COC(=O)C1CSCC1=O (stereo unspecified) | > 4 mM (inactive) |  |
| O=C(NCc1ccco1)c1ccc(=O)[nH]c1 | > 4 mM (inactive) |  |
| Cc1nnsc1C(=O)Nc1ccccc1[N+](=O)[O-] | > 4 mM (inactive) |  |
| CC(=O)Nc1ccc(C(=O)NC2CCSC2=O)cc1 (stereo unspecified) | > 4 mM (inactive) |  |
| CN1CCC(NC(=O)c2c(F)cccc2Cl)CC1 | > 4 mM (inactive) |  |
| Cc1ccc(C)c(C(=O)NCc2ccncc2)c1 | > 4 mM (inactive) |  |
| COc1cc(OC)c2c(c1Cl)OC1(C2=O)C(O)=CC(=O)CC1C (stereo unspecified) | > 4 mM (inactive) |  |
| CC(CO)NC(=O)C1C=C2c3cccc4[nH]cc(c34)C[C@H]2N(C)C1 (stereo partly specified) | > 4 mM (inactive) |  |
| Cc1nnsc1C(=O)Nc1cccc(S(N)(=O)=O)c1 | > 4 mM (inactive) |  |
| Nc1scc[n+]1CC(=O)[O-] | > 4 mM (inactive) |  |
| CC1(C)C(=O)C=C[C@@]2(C)C1=C(O)C(=O)[C@]1(C)C2CC[C@@]2(C)[C@H](c3ccoc3)C[C@H]3O[C@]321 (stereo partly specified) | > 4 mM (inactive) |  |
| COc1cc(O)cc(/C=C/c2ccccc2)c1 | > 4 mM (inactive) |  |
| C=C[C@H]1CN2CC[C@H]1C[C@@H]2[C@H](O)c1ccnc2ccccc12 | > 4 mM (inactive) |  |
| CCCCCC1C(=O)CCC1CC(=O)OC (stereo unspecified) | > 4 mM (inactive) |  |

| Compound | Kd | pKd |
| --- | --- | --- |
| O=C(O)C1CCCN1Cc1c[nH]c2ccccc12 (stereo unspecified) | > 4 mM (inactive) |  |
| O=C(O)c1csc2ccccc12 | > 4 mM (inactive) |  |
| O=c1ccc2ccccc2o1 | > 4 mM (inactive) |  |
| CC1(c2ccncc2)NC(=O)NC1=O (stereo unspecified) | > 4 mM (inactive) |  |
| Fc1cccc(F)c1CN1CCN(c2ncccn2)CC1 | > 4 mM (inactive) |  |
| CC(=O)O[C@H]1C[C@@H](OC(C)=O)C(C)(C)C2C[C@@H](OC(C)=O)[C@]3(C)C(CC[C@@]4(C)[C@H](c5ccoc5)OC(=O)[C@H]5O[C@]543)[C@]21C (stereo partly specified) | > 4 mM (inactive) |  |
| CC1(C)Oc2ccc3ccc(=O)oc3c2CC1O (stereo unspecified) | > 4 mM (inactive) |  |
| O=c1[nH]cnc2c1nnn2Cc1ccccc1 | > 4 mM (inactive) |  |
| CC(C)=CCc1c(O)cc2occ(-c3ccc4c(c3)OCO4)c(=O)c2c1O | > 4 mM (inactive) |  |
| CCCCCCCCCCCCCCCCCCOCC(O)CO (stereo unspecified) | > 4 mM (inactive) |  |
| O=C(CSc1ccc(C(F)(F)F)cc1[N+](=O)[O-])N1CCOCC1 |  | 3.35 |
| CCC(=O)Nc1ccc(-c2nn3c(C)nnc3s2)cc1 | > 4 mM (inactive) |  |
| O=C(CSc1cccc2cccnc12)N1CCCC1 | > 4 mM (inactive) |  |
| O=C(O)C1CSC(c2ccccc2)N1 (stereo unspecified) | > 4 mM (inactive) |  |
| O=C(O)c1ccc(Oc2ccccc2)nc1 | > 4 mM (inactive) |  |
| COCC(=O)Nc1cccc2ccccc12 | > 4 mM (inactive) |  |
| NS(=O)(=O)c1ccc(N=C2NC(=O)CS2)cc1 | > 4 mM (inactive) |  |
| Cc1cc(C(=O)Nc2ccon2)cs1 | > 4 mM (inactive) |  |
| N=Nc1c(O)[nH]c2ccccc12 | > 4 mM (inactive) |  |
| CSc1ncc(CO)n1Cc1ccccc1 | > 4 mM (inactive) |  |
| CC1=NCCc2c1[nH]c1cc(O)ccc21 | > 4 mM (inactive) |  |
| c1ccc2c(NC3=NCCS3)cccc2c1 | > 4 mM (inactive) |  |
| COc1cc2c(cc1NS(=O)(=O)N1CCCCC1)oc1ccccc12 | > 4 mM (inactive) |  |
| CN(C)N1C(=O)c2ccccc2C1=O | > 4 mM (inactive) |  |
| O=S1(=O)CCC2CC=CCC21 (stereo unspecified) | > 4 mM (inactive) |  |

| Compound | Kd | pKd |
| --- | --- | --- |
| COc1cccc(-c2csc(NC(C)=O)n2)c1 | > 4 mM (inactive) |  |
| CN(C)c1ccc2c(=O)[nH][nH]c(=O)c2c1 | > 4 mM (inactive) |  |
| NC1=NC(=O)C(CC(=O)Nc2ccccc2F)S1 (stereo unspecified) | > 4 mM (inactive) |  |
| OCc1cccc2nonc12 | > 4 mM (inactive) |  |
| CSc1nc(C)cc(Oc2ccc(=O)n(C)n2)n1 | > 4 mM (inactive) |  |
| Cc1onc(-c2ccccc2)c1C(=O)Nc1ccncc1 | > 4 mM (inactive) |  |
| CP(C)(=O)c1cccc(C(=O)O)c1 | > 4 mM (inactive) |  |
| COc1cc2c(cc1OC)[C@@H]1C(=O)c3ccc4c(c3O[C@@H]1CO2)C=CC(C)(C)O4 | > 4 mM (inactive) |  |
| O=C(O)C1CC2CC1CCC2O (stereo unspecified) | > 4 mM (inactive) |  |
| O=S1(=O)CCC(N2CCCCC2)C1 (stereo unspecified) | > 4 mM (inactive) |  |
| CNC(=S)N1CCN(C(=O)c2ccco2)CC1 | > 4 mM (inactive) |  |
| Cc1cc2cc(N)ccc2[nH]1 | > 4 mM (inactive) |  |
| CC(=O)Nc1cnn(-c2ccccc2)c(=O)c1Cl | > 4 mM (inactive) |  |
| CP(C)(=O)CCC(=O)O | > 4 mM (inactive) |  |
| O=C(O)c1ccc(-c2ccccn2)s1 | > 4 mM (inactive) |  |
| Cc1nnc2sc(-c3csc4c3CCCC4)nn12 | > 4 mM (inactive) |  |
| Cc1ccc(C(=O)CS(C)(=O)=O)cc1 | > 4 mM (inactive) |  |
| Cc1ccc(C)n1-c1ccc(C(=O)N2CCOCC2)cc1 | > 4 mM (inactive) |  |
| COc1cc(CNC(=O)CCCC/C=C/C(C)C)ccc1O | > 4 mM (inactive) |  |
| O=C(O)C1CC(=O)N(Cc2cccs2)C1 (stereo unspecified) | > 4 mM (inactive) |  |
| CC1CCN(C(=O)c2ccc3c(c2)OCCO3)CC1 | > 4 mM (inactive) |  |
| c1n[nH]cc1-c1cn[nH]c1 | > 4 mM (inactive) |  |
| CCCCCc1c2c(cc(O)c1C(=O)O)OC(=O)c1c(cc(OC)cc1C(=O)CCCC)O2 | > 4 mM (inactive) |  |
| O=c1c(-c2ccccc2)coc2cc(O)cc(O)c12 | > 4 mM (inactive) |  |
| COc1ccccc1NC(=O)CCC(=O)O | > 4 mM (inactive) |  |

| Compound | Kd | pKd |
| --- | --- | --- |
| O=C1Nc2ccccc2C1C1(O)C(=O)Nc2ccc(F)cc21 (stereo unspecified) | > 4 mM (inactive) |  |
| Cc1nccn1CCC(=O)O | > 4 mM (inactive) |  |
| Cc1nnc(NCc2ccc3c(c2)OCO3)[nH]c1=O | > 4 mM (inactive) |  |
| COC(=O)N1CCN(c2ccc(OC)cc2)CC1 | > 4 mM (inactive) |  |
| Cc1noc(C)c1C(=O)NCc1cccs1 | > 4 mM (inactive) |  |
| O=C(Nc1cccc2ncccc12)c1cccnc1 | > 4 mM (inactive) |  |
| C[n+]1ccc(C(=O)[O-])cc1 | > 4 mM (inactive) |  |
| COC(=O)CCC(C)C1CCC2C3CCC4C[C@H](O)CC[C@]4(C)C3C[C@H](O)[C@]12C (stereo partly specified) | > 4 mM (inactive) |  |
| Cc1oc(-c2ccccc2)nc1CCO | > 4 mM (inactive) |  |
| Cc1cc(C(=O)Nc2ccc3c(c2)OCO3)cs1 | > 4 mM (inactive) |  |
| COC(=O)Cc1cccc(OC)c1 | > 4 mM (inactive) |  |
| Cc1sc(N)c(C(N)=O)c1C | > 4 mM (inactive) |  |
| Cc1ccc(NC(=O)CC2NCCNC2=O)c(C)c1 (stereo unspecified) | > 4 mM (inactive) |  |
| CC(C)/C(O)=C1/C(=O)O[C@@H](c2ccoc2)[C@]2(C)C(O)[C@@H](O)[C@@]34OC5(C)OC67CC(C)(C(O)[C@]6(O)[C@@H](O)[C@]3(O5)C12)[C@H](CC(=O)O)[C@]74C (stereo partly specified) | > 4 mM (inactive) |  |
| O=C(O)CC(O)c1nc2ccccc2[nH]1 (stereo unspecified) | > 4 mM (inactive) |  |
| Oc1cnc2ccccc2c1CN1CCOCC1 | > 4 mM (inactive) |  |
| NC(=O)C1CCN(S(=O)(=O)c2ccccc2)CC1 | > 4 mM (inactive) |  |
| O=c1[nH]c(O)c(C=NC2CC2)c(=O)[nH]1 | > 4 mM (inactive) |  |
| COc1ccc2c(Cl)c(C(=O)N3CCOCC3)sc2c1 | inactive |  |
| O=C(Nc1c[nH]c(=O)[nH]c1=O)c1ccccc1F | > 4 mM (inactive) |  |
| CN1CCC(O)N1C(=O)c1ccccc1O (stereo unspecified) | > 4 mM (inactive) |  |
| C[C@@H](N)[C@@H](O)c1ccccc1 | > 4 mM (inactive) |  |
| C[C@@H]1C(=O)O[C@H]2[C@H]1CC[C@@]1(C)C=CC(=O)[C@@]3(C)O[C@@]213 | > 4 mM (inactive) |  |
| Nc1nc(-c2ccccc2)cc(=O)[nH]1 | > 4 mM (inactive) |  |
| COc1ccc(C(C)=O)c(O)c1 | > 4 mM (inactive) |  |

| Compound | Kd | pKd |
| --- | --- | --- |
| O=C1CSC(c2ccc3c(c2)OCO3)N1 (stereo unspecified) | > 4 mM (inactive) |  |
| CNC(=O)C(=O)NCc1ccc(C)cc1 | > 4 mM (inactive) |  |
| Cc1ccc(-c2nnn(CC(=O)O)n2)cc1 | > 4 mM (inactive) |  |
| C/C1=C\CCC(=O)C2CC(C)(C)C2CC1 (stereo unspecified) | > 4 mM (inactive) |  |
| O=c1[nH]cc(S(=O)(=O)Nc2ccccc2)c(=O)[nH]1 | > 4 mM (inactive) |  |
| Fc1ccc(Br)cc1/C=N/n1cnnc1 | > 4 mM (inactive) |  |
| CCNC(CC(=O)Nc1ccc(F)cc1)C(=O)O (stereo unspecified) | > 4 mM (inactive) |  |
| O=C1NC(=S)N/C1=C/c1ccsc1 | > 4 mM (inactive) |  |
| Nc1cccc2nonc12 | > 4 mM (inactive) |  |
| O=C1C2CCCCC2C(=O)N1Cc1cccnc1 (stereo unspecified) | > 4 mM (inactive) |  |
| O=C1CCC(=O)N1CN1CCOCC1 | > 4 mM (inactive) |  |
| CNC(C)[C@H](O)c1ccccc1 (stereo partly specified) | > 4 mM (inactive) |  |
| COC(=O)[C@@H]1OC(=O)C2OC23[C@@]1(C)CCC1[C@]2(C)C(C[C@@H](O)[C@]13C)C(C)(C)[C@H](OC(C)=O)C[C@@H]2OC(C)=O (stereo partly specified) | > 4 mM (inactive) |  |
| O=C(O)C1CSC(c2ccc(Cl)cc2)N1 (stereo unspecified) | > 4 mM (inactive) |  |
| Nc1ccc(-n2cncn2)cc1 | > 4 mM (inactive) |  |
| O=C(O)c1cccc(N2C(=O)C3CC=CCC3C2=O)c1 (stereo unspecified) | > 4 mM (inactive) |  |
| CC(C)n1nnc2cc(C(=O)O)ccc21 | > 4 mM (inactive) |  |
| NCCC(=O)N[C@@H](Cc1cnc[nH]1)C(=O)O | > 4 mM (inactive) |  |
| OCc1c[nH]c2ccccc12 | > 4 mM (inactive) |  |
| Cc1cc(=O)n2nc(-c3ccccc3)sc2n1 | > 4 mM (inactive) |  |
| CC12CC[C@H](CC1=O)C2(C)C | > 4 mM (inactive) |  |
